# Measured values reported in PMC12169609, “Efficient Crystallization of Apo Sirt2 for Small-Molecule Soaking and Structural Analysis of Ligand Interactions” (Journal of Medicinal Chemistry, 2025).
# Experiments:
# Sirt2_56–356 [1] = target: T1, Sirt2_56–356 (Homo sapiens, UniProt Q8IXJ6); test: Fluorescence polarization assay (FPA), displacement of SirReal-TAMRA probe; assay type: binding; conditions: for FP-Assay Inhibition (%) at 125 µM / inhibition at 125 µM: 125 µM compound; for FP-Assay Inhibition (%) at 500 µM / inhibition at 500 µM: 500 µM compound; for FP-Assay Inhibition (%) at 2000 µM / inhibition at 2000 µM: 2000 µM compound; for IC50: 200 nM Sirt2, 40 nM SirReal-TAMRA, 5% DMSO; for inhibition at 125 µM: read-out: FP-Assay Inhibition (%) at 125 µM; for inhibition at 500 µM: read-out: FP-Assay Inhibition (%) at 500 µM; for inhibition at 2000 µM: read-out: FP-Assay Inhibition (%) at 2000 µM
# T1 construct: human strep-tagged Sirt2_56–356 was expressed and purified; strep-tag; made in house
# T1 sequence (Q8IXJ6 56-356): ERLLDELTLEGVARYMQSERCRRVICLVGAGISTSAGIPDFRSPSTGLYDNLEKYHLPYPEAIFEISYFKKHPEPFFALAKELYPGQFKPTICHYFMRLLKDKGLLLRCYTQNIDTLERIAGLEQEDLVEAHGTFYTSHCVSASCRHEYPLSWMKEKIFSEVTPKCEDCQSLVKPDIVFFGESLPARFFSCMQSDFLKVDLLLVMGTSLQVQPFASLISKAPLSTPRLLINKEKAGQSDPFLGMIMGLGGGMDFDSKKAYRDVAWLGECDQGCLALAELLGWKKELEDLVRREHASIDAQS
# Protocol: Blank controls contained 19 μL of assay buffer and 1 μL DMSO. Negative controls (P neg) used 1 μL Mz242 (20 μM final concentration), while positive controls (Ppos) replaced the inhibitor with 1 μL DMSO. […] Fluorescence intensities were measured with an EnVision plate reader (PerkinElmer, optical module – BODIPY TMR FP, excitation filter – FP 531 nm, emission filter 1 – FP p-pol 595 nm, emission filter 2 – FP s-pol 595 nm). Inhibition was calculated using the equation reported below (P I, P neg, and P pos are FP values of samples, […], respectively). I=100×(1−(PI−Pneg/Ppos−Pneg))%
# Sirt2_56–356 [2] = target: T1, Sirt2_56–356; test: Fluorescence thermal shift assay (DSF); assay type: binding; conditions: 6.0 μM Sirt2; for FTS-Assay Thermal shift at 1000 µM / ΔTm at 1000 µM: 1000 µM compound; for ΔTm at 1000 µM: read-out: FTS-Assay Thermal shift at 1000 µM
# Protocol: Fluorescence thermal shift assays were performed in white 96-well plates (Hard-Shell PCR Plates, BioRad, USA) with a total volume of 20 μL and a final DMSO concentration of 5% (v/v), following a published protocol. ,
# Melting temperatures were determined using GraphPad Prism, following a published procedure.
# [3] = Precipitation observed in the FP assay IC50 determination; assay type: physicochemical; conditions: FP assay buffer, 5% DMSO
# From the text: Figure S3: (A) Superimposition of Sirt2 apo (salmon, PDB 9FDR) with Sirt2-Mz242 (Sirt2 = yellow-orange, Mz242 = yellow, PDB 8OWZ).4 All amino acids that are involved in the formation of the selectivity pocket align very well. However, Phe96 and Arg97 from the cofactor binding loop show a different orientation, resulting from the presence or absence of Mz242. (B) Superimposition of Sirt2-KT9 (Sirt2 = wheat, KT9 = firebrick, PDB 9FDX) with NAD+ (gray) from PDB 4RMG. In the presented KT9 orientation, the close distance of the amide C=O of KT9 and the ribose moiety of NAD+ (highlighted as black circle) would result in steric clashes that prevent simultaneous binding.
# Figure S4: IC50 curves of compounds 1-3 in a previously reported Sirt2 binding assay based on fluorescence polarization.5 At concentrations exceeding 1000 µM, 1 started to precipitate, thus limiting the maximum inhibition to 70%. […]
# Sirt2 = conditions: published Sirt2 inhibitors; no assay or reference printed at the place; cited from earlier work
Structure (SMILES),FP-Assay Inhibition (%) at 125 µM (Sirt2_56–356 [1]),FP-Assay Inhibition (%) at 500 µM (Sirt2_56–356 [1]),FP-Assay Inhibition (%) at 2000 µM (Sirt2_56–356 [1]),FTS-Assay Thermal shift at 1000 µM (Sirt2_56–356 [2]),FTS-Assay Thermal shift at 2000 µM (Sirt2_56–356 [2]; 2000 µM compound),other results
CC(=O)c1c(O)cccc1OCCC(C)C [No. 22],57.6 ± 7.3%,74.2 ± 4.2%,56.5 ± 2.8%,1.9 °C,1.6 °C,–
CNCc1ccc(N2CCOCC2)s1 [No. 13],19.9 ± 3.1%,49.3 ± 4.1%,95.1 ± 3.5%,–,–,–
Nc1ccccc1-c1cccs1 [No. 12],33.2 ± 10.3%,66.4 ± 3.2%,104.2 ± 3.2%,–,0.0 °C,–
CC1Sc2ccccc2NC(=O)C1C (stereo not shown) [No. 6],20.2 ± 2.9%,59.9 ± 7.9%,101.0 ± 4.7%,1.5 °C,–,–
NC(=S)c1ccc(OCC(F)(F)F)nc1 [compound 1],–,–,–,–,–,"IC50 (Sirt2_56–356 [1]): 286 ± 10 µM; inhibition at 125 µM (Sirt2_56–356 [1]): 26.5 ± 5.8%; inhibition at 500 µM (Sirt2_56–356 [1]): 55.4 ± 4.3%; inhibition at 2000 µM (Sirt2_56–356 [1]): 74.2 ± 3.1%; ΔTm at 1000 µM (Sirt2_56–356 [2]): 0.3 °C; ΔTm at 2000 µM (Sirt2_56–356 [2]; 2000 µM compound, read-out: FTS-Assay Thermal shift at 2000 µM): 0.6 °C; concentration above which compound started to precipitate [3]: exceeding 1000 µM"
CCOC(=O)c1cccc(-c2nccs2)c1 [No. 21],41.8 ± 5.9%,91.4 ± 2.5%,97.0 ± 6.2%,0.9 °C,–,–
Nc1nc(-c2ccc(F)c(F)c2)cs1 [No. 20],-0.9 ± 6.3%,38.8 ± 4.6%,91.3 ± 3.2%,–,0.0 °C,–
C#Cc1ccc(-c2cnco2)cc1 [No. 8],19.1 ± 4.6%,61.2 ± 3.3%,–,0.9 °C,0.0 °C,–
COCCn1cc(COc2cccc(Cc3cnc(NC(=O)CSc4nc(C)cc(C)n4)s3)c2)nn1 [Mz242],–,–,–,–,–,IC50 (Sirt2): 0.12 µM
CCOC(=O)Cc1ccc(OC)cc1 [No. 16],23.1 ± 3.9%,50.5 ± 5.4%,–,0.5 °C,0.4 °C,–
Cc1ccc(=O)n(Cc2ccc(Cl)cc2)n1 [No. 18],11.3 ± 3.2%,41.9 ± 7.0%,90.8 ± 2.8%,1.3 °C,0.1 °C,–
CCOC(=O)Cc1cccc(Cl)c1 [No. 17],24.7 ± 4.0%,63.8 ± 2.4%,99.7 ± 4.6%,0.9 °C,0.9 °C,–
c1ccc2c(CN3CCOCC3)csc2c1 [No. 14],24.3 ± 3.5%,42.5 ± 2.9%,91.9 ± 13.9%,1.3 °C,0.7 °C,–
Clc1ccc2ncccc2c1 [No. 15],6.3 ± 7.4%,36.2 ± 6.5%,87.3 ± 6.8%,0.7 °C,0.2 °C,–
CC(=O)Nc1ccc2c(c1)CCC2 [No. 4],32.8 ± 4.3%,61.1 ± 6.5%,78.5 ± 7.5%,1.1 °C,0.1 °C,–
N#CCOc1cc(Cl)cc(Cl)c1 [No. 10],19.3 ± 10.5%,53.9 ± 8.2%,90.3 ± 14.7%,0.7 °C,–,–
CC1(C)CC(=O)c2c(SCCO)sc(C#N)c2C1 [No. 19],8.2 ± 4.9%,40.9 ± 5.6%,91.5 ± 1.7%,–,–,–
O=C(NCc1ccccn1)c1cccc(Cl)c1 [compound 3],–,–,–,–,–,IC50 (Sirt2_56–356 [1]): 565 ± 95 µM; inhibition at 125 µM (Sirt2_56–356 [1]): 15.1 ± 7.7%; inhibition at 500 µM (Sirt2_56–356 [1]): 46.9 ± 9.3%; inhibition at 2000 µM (Sirt2_56–356 [1]): 94.8 ± 3.4%; ΔTm at 1000 µM (Sirt2_56–356 [2]): 0.5 °C
COC(=O)c1sccc1-n1cccc1 [No. 7],11.5 ± 5.5%,46.9 ± 4.3%,76.2 ± 1.8%,0.8 °C,0.5 °C,–
CN(C(=O)c1cccs1)C1CC2CCC1C2 (stereo not shown) [No. 5],-7.4 ± 8.3%,10.3 ± 6.0%,43.8 ± 10.1%,0.5 °C,0.7 °C,–
